From patent publication US11865104B2, “Antitumor TET2 modulating compounds” (THE CLEVELAND CLINIC FOUNDATION, priority 2017, dated 2024)
“Also recorded” adds a separate entry of the source.

Experiments:
[1] = tested on: MOLM and K562 TET2 knockdown cells; assay: Culture of TET2 knockdown cell lines; format: cell-based; settings: preliminary experiments
[2] = MTD by dose escalation in mice; settings: mouse, in vivo
Procedure: To further validate the feasibility of our proposed strategy as a therapeutic principle, we used mixing experiments in which tet2^MT/tet2^WT were co-cultured at fixed ratios to mimic evolving tet2MT clone and the differences in isoform fractions served as read out. In long-term culture of normal marrow from B6Cd45.1 Pep Boy vs. B6CD45.2 mice of tet2^+/− and tet2^−/− genetic background. Marrow cell from 3 mice/group were cultured in 1:2 ratio of tet2^MT/tet2^WT with/without TETi. Over the period of culture TETi effectively eliminated otherwise dominating tet2^+/− cells (FIG. 4). As expected, tet2^MT grew at faster rate in the controls as reflected in the increased ratio >1:1 of tet2^MT/tet2^WT, while TETi treatment selectively eliminated the tet2^MT cells as determined using CD45.1/CD45.2 surface markers on tet2^WT and tet2^MT bone marrow, respectively (FIGS. 4A&B). […] In vivo efficacy of TETi. […] First we determined MTD utilizing a dose escalation in a group of 3 mice each. […] The MTD was determined at 168 mg/kg. […] Once mice were fully recovered as determined by their weight, the ratio of tet2^MT and tet2^WT marrow was confirmed by CD45.1/CD45.2 cytometry prior to treatment. […] Ratio of CD45.2 vs. CD45.1 was determined at different time points (FIGS. 4D&E). […]

K562 TET2^KO cells = assay: Colony forming assay in TET2 knock-out K562 cells; format: cell-based, human; settings: K562 TET2^KO vs K562
Text: (§1) FIGS. 3A-3G provide graphs showing the In-vitro efficacy of TETi in the elimination of TET2MTcells. A. Leukemia cell lines express different level of TET2. B. Ratio of TET2 expression vs. Lamin C. The dose response curves of cell survival with different concentration of TETi76 D. LD50 plotted against the relative expression of TET2 and C. E. Colony forming abilities of K562 TET2^+/+ and TET2^−/− cells in the presence and absence of TETi76. Data is representative of 3 independent experiment performed separately. F. Colony forming abilities of two independent normal bone marrow cells (NBM) and SIGM5 cells in MethoCult in the presence and absence of TETi76. Data is the summary of three independent experiments performed separately. G. Bone marrow from Tet2^+/+, Tet2^+/− and Tet2^−/− mice were harvested and cultured in MethoCult in the presence or absence of TETi76.
(§2) Efficacy and specificity of TETi. We used established tet2^+/− vs. tet2^−/− mouse models as well as several human myeloid cell lines selected to harbor TET2^MT or to express low level of TET2 to determine the specificity, establish the read out and provide proof of concept for the proposed strategy. […] The IC50 of different cells against TETi76 is inversely correlated with TET-activity (FIG. 3).

MOLM13 = assay: Growth suppression / cell survival dose response in leukemia cell lines; format: cell-based; settings: Homo sapiens, MOLM-13; MOLM13, least TET2 expression
Text: as §1, §2

SIGM5 = assay: as above; format: cell-based; settings: Homo sapiens, SIG-M5; SIGM5, least TET2 expression
Text: as §1, §2

tet2^MT clones = assay: In vivo mixed bone marrow transplant, CD45.2 vs CD45.1 ratio; design: species or system mice; settings: 80 mg/kg 5 days/week, irradiated CD45.1 recipients transplanted with mixed marrow
Procedure: FIGS. 4A-4E provide graphs and images showing the In-vivo efficacy of TETi in the elimination of cells with TET2^MT. […] Tet^mt bone marrow cells were mixed in the ratio of 1:2 with tet2^+/+ bone marrow cells isolated from Pep (CD45.1). The mixed bone marrow cells were treated either with DMSO or with TETi76 in MethoCult™. Cells were isolated and ratio of CD45.1 (Pep, tet2^+/+) and CD45.2 (tet2mt) was determined by flow using antibodies against CD45.1 and CD45.2. B. Tet2^+/− bone marrow cells were mixed in the ratio of 1:2 with Tet2^+/+ in MethoCult with the treatment of DMSO or TETi76. Ratio of Tet2^+/− vs Tet2^+/+ was measured by flow. C. […] Ratio of Tet2^+/− vs Tet2^+/+ was measured by flow. […] CD45.1+ vs. CD45.2+ was serially assessed.
To further validate the feasibility of our proposed strategy as a therapeutic principle, we used mixing experiments in which tet2^MT/tet2^WT were co-cultured at fixed ratios to mimic evolving tet2MT clone and the differences in isoform fractions served as read out. […] As expected, tet2^MT grew at faster rate in the controls as reflected in the increased ratio >1:1 of tet2^MT/tet2^WT, while TETi treatment selectively eliminated the tet2^MT cells as determined using CD45.1/CD45.2 surface markers on tet2^WT and tet2^MT bone marrow, respectively (FIGS. 4A&B). […] First we determined MTD utilizing a dose escalation in a group of 3 mice each. […]

K562 = assay: Growth suppression / cell survival dose response in leukemia cell lines; format: cell-based, human; settings: K562, high TET2 expressing
Text: as §1, §2

HEL01 = assay: as above; format: cell-based, human; settings: HEL01, high TET2 expressing
Text: as §1, §2

Gulo^−/−Tet2^+/− cells = assay: hmC level in Gulo^−/−Tet2^+/− cells; format: cell-based
Text: We optimized assays to assess the impact of mutation or haploinsufficiency on dioxygenase activity in our laboratory. We deployed 2 independent methods for the quantification of hmC/mC. First, a semi quantitative method of dot blot and second a highly sensitive 2D-UPLCMS method. These methods were used to determine the relative activity of TET2 enzymatic function. We can quantify TET2 dioxygenase activity products in cell lines and patient's bone marrow cells with various types of TET2^MT (FIG. 3E) in genetically modified (retrovirally-transduced TET2 shRNA) K562 and MOLM13 cells and bone marrow from Tet2^−/− and Tet^+/− mice. As expected, haploinsufficiency of TET2 leads to gene-dose dependent decreases in 5hmC and further oxidized products.

Compound	inhibitory effects compared to cells with scrambled shRNA [1]	mortality at MTD [2]	MTD at 3 months ([2]; dose escalation, groups of 3 mice, 5 days a week, weekly dose increments)	colony forming, effect of TET2 knock-out on sensitivity (K562 TET2^KO cells)	IC50 (MOLM13)	IC50 (SIGM5)	growth of tet2^MT clones in vivo (ratio CD45.2 vs CD45.1) (tet2^MT clones)	sensitivity to treatment (K562)	sensitivity to treatment (HEL01)	levels of TET2 product hmC (Gulo^−/−Tet2^+/− cells)
COC(=O)CCC(=O)C(=O)OC [DMKG]	differential and dose-dependent inhibitory effects	–	–	–	–	–	–	–	–	–
C=C(CC(O)C(=O)OCC)C(=O)OCC (centres unmarked) [TETi76]	–	no mortality	168 mg/kg	sensitized these cells to TETi76	9.6 µM	11.2 µM	most pronounced against tet2^−/− compared to tet2^+/− genotype; also recorded: prevents clonal expansion Tet2MT cells in vivo	lowest sensitivity	lowest sensitivity	–
O=C1O[C@H]([C@@H](O)CO)C(O)=C1O [vitC, vitamin C]	differential and dose-dependent inhibitory effects	–	–	–	–	–	–	–	–	increases levels of the TET2 product hmC
